Test results reported in article PMC12339982 (Nature Communications, 2025).

How the values were obtained:
[1] = molecular target: T1, human wild type TauT (TauT^WT) (Homo sapiens, UniProt P31641); test: [3H]taurine uptake inhibition assay in HEK293T cells overexpressing TauT^WT; assay type: cell-based; conditions: for inhibition of the uptake activity of TauT: result in words
T1 sequence (P31641 1-620): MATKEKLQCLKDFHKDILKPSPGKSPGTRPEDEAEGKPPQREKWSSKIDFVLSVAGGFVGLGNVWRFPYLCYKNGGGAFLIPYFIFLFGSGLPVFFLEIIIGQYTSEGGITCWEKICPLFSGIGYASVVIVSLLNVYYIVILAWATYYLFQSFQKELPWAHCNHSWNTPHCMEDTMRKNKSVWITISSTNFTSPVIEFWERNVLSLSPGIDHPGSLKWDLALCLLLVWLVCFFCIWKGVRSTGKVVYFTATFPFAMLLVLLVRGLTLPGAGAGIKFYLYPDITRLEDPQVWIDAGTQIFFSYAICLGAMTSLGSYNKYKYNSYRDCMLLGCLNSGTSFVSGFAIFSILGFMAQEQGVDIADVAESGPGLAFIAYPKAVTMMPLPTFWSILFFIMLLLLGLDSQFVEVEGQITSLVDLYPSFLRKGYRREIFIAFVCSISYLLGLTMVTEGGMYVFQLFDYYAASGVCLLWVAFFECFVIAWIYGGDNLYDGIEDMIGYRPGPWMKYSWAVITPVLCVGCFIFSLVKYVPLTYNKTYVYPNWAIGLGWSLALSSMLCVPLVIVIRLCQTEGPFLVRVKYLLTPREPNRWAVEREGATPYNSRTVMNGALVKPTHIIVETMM

[2] = test system: hGAT1; conditions: previous studies; cited from earlier work

SMILES	inhibition of the uptake activity of TauT [1]	IC50 [1] [µM]	IC50 for hGAT1 compared with hTauT [2]
NCCCCC(=O)O [5AVA, 5-aminovaleric acid]	concentration-dependently inhibited	–	–
NCCCS(=O)(=O)O [Htau, homotaurine]	concentration-dependently inhibited	770 ± 160	–
O=C(O)Cc1c[nH]cn1 [I4AA, imidazole-4-acetic acid]	concentration-dependently inhibited	–	–
O=S(=O)(O)C1CCNCC1 [P4S, piperidine-4-sulfonic acid]	concentration-dependently inhibited	–	–
O=C(O)C1CCCNC1 (stereo not shown) [nipecotic acid]	concentration-dependently inhibited	–	lower IC50 value for hGAT1 than for hTauT
